According to PMC10722499, “Consumption of Roasted Coffee Leads to Conjugated Metabolites of Atractyligenin in Human Plasma” (Journal of Agricultural and Food Chemistry, 2023):
Read-outs that look alike come from different tables or passages of the source.

What was measured:
[1] = Human coffee intervention study: plasma concentrations after roasted coffee brew by UPLC-MS/MS; type: in vivo; details: for plasma level at baseline / concentration at 0 h: 0 h; for plasma level at baseline: before coffee intake; for samples above the LLOQ / study participants in whom the conjugate appeared within 10 h after coffee: n = 10; for concentration at 1 h / concentration at 4 h / concentration at 10 h / concentration at 0 h: human, plasma, 200 mL; for concentration at 1 h / concentration at 4 h / concentration at 10 h / Cmax / concentration at 0 h: oral; for Cmax / time of estimated cmax: human plasma after coffee brew (200 mL); for Cmax: n = 10, mean ± SD, read-out: estimated cmax in plasma; for time of estimated cmax: sampling only at 0, 1, 4, 10 h
Procedure: The study included ten volunteers (5 females, 5 males) (age: 28.3 ± 2.3 years; BMI: 21.89 ± 2.22 kg/m^2). The intervention study took place from November 5, 2021, to February 17, 2022, in the core facility human studies of the ZIEL Institute for Food and Health of the Technical University of Munich. The study was performed in agreement with the Declaration of Helsinki, and all participants gave written informed consent. The study was approved by the Ethics Committee of the Technical University of Munich (5798/13 S-SR) and registered in the German Register of Clinical Studies (DRKS00005083).
The study participants underwent a dietary protocol that excluded all forms of coffee consumption. Additionally, chocolate, black/green/white, mate tea, cola, energy drinks, and beauty products containing caffeine (e.g., shampoos, creams) were prohibited 1 week before the test day. Furthermore, the study participants received a standardized meal the evening before the test day. The meal was composed of pasta, margarine, and salt, and the amount of energy was calculated based on the participant’s basal energy demand. On the morning of the test day, the participants were in a fastened state and received water (control samples) or coffee brew (coffee intervention) as breakfast. Blood was sampled before coffee intake (0 h) and at defined time points (1, 4, and 10 h) after coffee intake. 6 h after the coffee intake, the participants received lunch, the same standardized meal as the previous dinner. The administered coffee was prepared from a coffee capsule (Nespresso, ROMA) with 100 mL water. The administered volume of the coffee brew was 200 mL. Based on the coffee powder per capsule ([…]), the concentrations of 2 (2.8 μmol/g) and 3 (1.1 μmol/g), respectively,[10] and an estimated extraction rate of 100%, the total ingested amounts were 33.6 μmol (2) and 13.2 μmol (3).
In an Eppendorf tube (1.5 mL), aliquots (50 μL each) of the calibration standard, sample, or QC, respectively, were mixed with the IS solution (1000 nM in ethanol, 50 μL) and acetonitrile/ethanol (9 + 1, v + v, 50 μL) was added. After vortexing, suspensions were cleared by centrifugation (12,000 rpm, 4 °C, 10 min), and the supernatant (∼100 μL) was transferred to an HPLC vial with 200 μL insert for analysis (5 μL injection).
The UPLC–MS/MS system consisted of a Shimadzu Nexera X2 UPLC system (Shimadzu, Duisburg, Germany) hyphenated to a QTrap 5500 MS/MS system (Sciex, Darmstadt, Germany) operating in negative electrospray (ESI^–) mode with the following ion source parameters: ion spray voltage: −4500 V; source temperature: 500 °C; nebulizer gas: 55 psi; heater gas: 65 psi; and curtain gas: 35 psi. The MS/MS parameters, including the collision cell entrance potential (CEP), declustering potential (DP), collision energy (CE), and cell exit potential (CXP), were tuned for each compound and mass transition and are summarized in Supporting Table S3. The dwell time for each compound was 30 ms, and the total cycle time was 0.75 s. Chromatographic separation was achieved on a C18 column (Kinetex C18, 100 mm × 2.1 mm, 1.7 μm, Phenomenex, Aschaffenburg, Germany) at a flow rate of 500 μL/min flow rate. Eluent A was 0.1% formic acid in water, and eluent B was 0.1% formic acid in acetonitrile. B was kept at 3% (1 min), increased to 25% (in 3 min), 90% (in 2 min, 1 min isocratic), and 3% (0.5 min, 2.5 min isocratic). The total time of the analysis was 10 min. The column effluent was introduced from the waste to the MS/MS system between 3 and 7 min.
We applied this method to human plasma samples from a coffee intervention study to investigate the appearance of coffee compounds 1–3 and metabolites M1–M3. Ten participants underwent a washout period (7 days) and then consumed one dose of […]. Blood samples were taken at baseline (0 h) and 1, 4, and 10 h after the intervention. […]

[2] = parameters: method as in PMID 36442242; details: coffee drinkers' urine, four of six samples, qualitative; cited from earlier work
[3] = both sexes, 1 h after coffee brew (200 mL), human plasma, values above LLOQ, read-out: plasma concentration, mean ± SD
[4] = both sexes, 4 h after coffee brew (200 mL), human plasma, values above LLOQ, read-out: plasma concentration, mean ± SD
[5] = both sexes, 10 h after coffee brew (200 mL), human plasma, values above LLOQ, read-out: plasma concentration, mean ± SD
[6] = participant cbdu, 10 h after coffee, read-out: plasma concentration, individual
[7] = participant eogo, 1 h after coffee, b = below LLOQ, read-out: plasma concentration, individual
[8] = participant eogo, 10 h after coffee, b = below LLOQ, read-out: plasma concentration, individual
[9] = participant ggot, 4 h after coffee, b = below LLOQ, read-out: plasma concentration, individual
[10] = participant ggot, 10 h after coffee, b = below LLOQ, read-out: plasma concentration, individual
[11] = participant imhz, 10 h after coffee, read-out: plasma concentration, individual
[12] = participant mgjj, 10 h after coffee, read-out: plasma concentration, individual
[13] = participant rrmk, 4 h after coffee, b = below LLOQ, read-out: plasma concentration, individual
[14] = participant rrmk, 10 h after coffee, read-out: plasma concentration, individual
[15] = participant wbqj, 4 h after coffee, b = below LLOQ, read-out: plasma concentration, individual
[16] = participant wbqj, 10 h after coffee, b = below LLOQ, read-out: plasma concentration, individual
[17] = participant wbvs, 1 h after coffee, read-out: plasma concentration, individual
[18] = participant wbvs, 4 h after coffee, read-out: plasma concentration, individual
[19] = participant wbvs, 10 h after coffee, read-out: plasma concentration, individual
[20] = participant xrwz, 10 h after coffee, b = below LLOQ, read-out: plasma concentration, individual
[21] = participant ayia, 1 h after coffee, read-out: plasma concentration, individual
[22] = participant ayia, 10 h after coffee, read-out: plasma concentration, individual
[23] = participant cbdu, 1 h after coffee, b = below LLOQ, read-out: plasma concentration, individual
[24] = participant ggot, 1 h after coffee, read-out: plasma concentration, individual
[25] = participant wbqj, 1 h after coffee, b = below LLOQ, read-out: plasma concentration, individual

plasma level at baseline ([1]; human plasma) | samples above the LLOQ ([1]; 10 h after coffee) [%] | concentration at 1 h [1, 3] [nM] | concentration at 10 h [1, 5] [nM] | Cmax ([1]; both sexes) [nM] | time of estimated cmax [1] [h] | study participants in whom the conjugate appeared within 10 h after coffee ([1]; human plasma) [%] | concentration at 10 h [1, 6] [nM] | concentration at 10 h [1, 8] [nM] | concentration at 10 h [1, 10] [nM] | concentration at 10 h [1, 11] [nM] | concentration at 10 h [1, 12] [nM] | concentration at 10 h [1, 16] [nM] | concentration at 10 h [1, 19] [nM] | Structure (SMILES) | urine samples in which detected [2] [%] | concentration at 4 h [1, 4] [nM] | concentration at 1 h [1, 7] [nM] | concentration at 4 h [1, 9] [nM] | concentration at 4 h [1, 13] [nM] | concentration at 10 h [1, 14] [nM] | further results
 |  |  |  |  |  |  |  |  |  |  |  |  |  | CC1C(=O)C23CCC4C(C(=O)O)CC(O)CC4(C)C2CCC1C3 (stereo not drawn) [compound 5, 2β-hydroxy-15-oxoatractylan-4α-carboxylic acid] |  |  |  |  |  |  | appearance in plasma after coffee ([1]; all samples 1, 4, 10 h after coffee brew (200 mL), human plasma): did not appear in the plasma
below the LLOQ | 90 | 1.7 | 55 ± 57.7 | 55 ± 57.7 | 10 | 90 | 11.6 | 40.8 | 180 | 9.3 | 24.3 | 64.1 | 111 | CC1C(=O)C23CCC4C(C(=O)O)CC(OC5OC(C(=O)O)C(O)C(O)C5O)CC4(C)C2CCC1C3 [M3, 2β-hydroxy-15-oxoatractylan-4α-carboxylic acid-2-O-β-D-glucuronide] | 67 | 1.3 ± 1.1 | 0.3 | 2.9 | 0.7 | 50.6 | plasma concentration in samples from two individuals ([1]; 10 h after coffee, comparatively high individual values): 180.0 nM; concentration at 10 h ([1]; 10 h after coffee, comparatively high individual values, read-out: plasma concentration in samples from two individuals): 111 nM; concentration at 0 h ([1]; participant eogo, b = below LLOQ, read-out: plasma concentration, individual): 0.4 nM; concentration at 4 h ([1]; participant eogo, 4 h after coffee, b = below LLOQ, read-out: plasma concentration, individual): 0.1 nM; concentration at 4 h [1, 15]: 0.9 nM; concentration at 0 h ([1]; participant wbvs, b = below LLOQ, read-out: plasma concentration, individual): 0.9 nM; concentration at 1 h [1, 17]: 1.7 nM; concentration at 4 h [1, 18]: 1.9 nM; concentration at 10 h [1, 20]: 4.1 nM
below the LLOQ | 80 | 0.63 ± 0.14 | 2.5 ± 1.9 | 2.5 ± 1.9 | 10 | 80 | 0.9 | 3.1 | 0.6 | 1.1 | 0.8 | 2.8 | 5.1 | CC1C(=O)C23CCC4C(C(=O)OC5OC(C(=O)O)C(O)C(O)C5O)CC(O)CC4(C)C2CCC1C3 [M2, 2β-hydroxy-15-oxoatractylan-4α-carboxy-19-O-β-D-glucuronide] | 67 |  |  |  |  |  | plasma concentration, mean ± SD ([1]; 1 h after coffee brew (200 mL), human plasma, values above LLOQ): 0.6 ± 0.1 nM; concentration at 1 h [1, 21]: 0.5 nM; concentration at 4 h ([1]; participant ayia, 4 h after coffee, b = below LLOQ, read-out: plasma concentration, individual): 0.1 nM; concentration at 10 h [1, 22]: 5.6 nM; concentration at 1 h [1, 23]: 0.1 nM; concentration at 1 h [1, 24]: 0.7 nM; concentration at 0 h ([1]; participant rrmk, b = below LLOQ, read-out: plasma concentration, individual): 0.1 nM; concentration at 1 h [1, 25]: 0.01 nM

Structure (SMILES) | plasma level at baseline ([1]; human plasma) | samples above the LLOQ ([1]; 10 h after coffee) [%] | concentration at 1 h [1, 3] [nM] | concentration at 10 h [1, 5] [nM] | Cmax ([1]; both sexes) [nM] | time of estimated cmax [1] [h] | study participants in whom the conjugate appeared within 10 h after coffee ([1]; human plasma) [%] | concentration at 10 h [1, 6] [nM] | concentration at 10 h [1, 8] [nM] | concentration at 10 h [1, 10] [nM] | concentration at 10 h [1, 11] [nM] | concentration at 10 h [1, 12] [nM] | concentration at 10 h [1, 16] [nM] | concentration at 10 h [1, 19] [nM] | urine samples in which detected [2] [%] | concentration at 4 h [1, 4] [nM] | concentration at 1 h [1, 7] [nM] | concentration at 4 h [1, 9] [nM] | concentration at 4 h [1, 13] [nM] | concentration at 10 h [1, 14] [nM] | further results
C=C1[C@@H]2CC[C@@H]3[C@@](CCC4[C@H](C(=O)O)C[C@@H](O)C[C@]43C)(C2)[C@@H]1O (some centres unmarked) [compound 1, atractyligenin] |  |  | 41.9 ± 12.5 | 23.3 ± 10.5 | 41.9 ± 12.5 | 1 |  | 19 | 8 | 2.3 | 43.7 | 16.5 | 4.7 | 17 |  | 40.1 ± 22.9 | 43.4 | 13.8 | 68.1 | 17.9 | drop of plasma concentration until 10 h ([1]; from the level between 1 and 4 h to 10 h after coffee): ~45%; concentration at 1 h [1, 21]: 36.5 nM; concentration at 10 h [1, 22]: 25.6 nM; concentration at 1 h [1, 23]: 31.6 nM; concentration at 1 h [1, 24]: 49.2 nM; concentration at 1 h ([1]; participant imhz, 1 h after coffee, read-out: plasma concentration, individual): 70.5 nM; concentration at 4 h ([1]; participant imhz, 4 h after coffee, read-out: plasma concentration, individual): 19.6 nM; concentration at 1 h ([1]; participant mgjj, 1 h after coffee, read-out: plasma concentration, individual): 34.7 nM; concentration at 4 h ([1]; participant mgjj, 4 h after coffee, read-out: plasma concentration, individual): 17.7 nM; concentration at 1 h ([1]; participant rrmk, 1 h after coffee, read-out: plasma concentration, individual): 42.7 nM; concentration at 1 h [1, 25]: 49.1 nM; concentration at 4 h [1, 15]: 59.7 nM; concentration at 1 h [1, 17]: 36.1 nM; concentration at 4 h [1, 18]: 35.2 nM; concentration at 1 h ([1]; participant xrwz, 1 h after coffee, read-out: plasma concentration, individual): 26 nM; concentration at 10 h [1, 20]: 10.4 nM; participants in whom plasma concentration increased between 4 and 10 h ([1]; individual plots, after first maximum at 1 h): 60%
